Laboratory results reported in US20110082087A1, “COMPOUNDS FOR TREATING PAIN” (Edificio ICAT, priority 2008, published 2011).

Key:
[1] = Acrylamide quenching studies (aggregation in aqueous medium); type: physicochemical; conditions: acrylamide quenching of tyrosine fluorescence
Procedure: The aggregation of molecules in aqueous medium, as a result of poor solubility, for example, is a critical parameter in pharmacology. […] For this purpose, acrylamide quenching studies were performed (Lakowicz J. R 1999. Principles of Fluorescence spectroscopy, Second Edition ed., Kluwer Academic/Plenum Publishers, New York; Coutinho A and Prieto M. 1993. Ribonuclease T1 and alcohol dehydrogenase fluorescence quenching by acrylamide: A laboratory experiment for undergraduate students J. Chem. Education, 70: 425-428). Acrylamide is an aqueous quencher of tyrosine fluorescence. When fluorescent peptides aggregate, the phenolic groups tend to cluster and remain inaccessible to hydrophilic molecules. Conversely, when no aggregation occurs, all tyrosine residues are exposed to the solvent and, therefore, accessible to the contact and quenching by acrilamide. […] The fluorescence spectra were not concentration-dependent (not shown) and there was a linear dependence of fluorescence intensity on concentration (not shown).

[2] = Partition into lipid bilayer vesicles (fluorescence titration); type: physicochemical; conditions: mammal-mimetic lipid bilayer vesicle; numerical treatment of fluorescence titration
Source text: We performed biophysical studies using fluorescent methodologies in order to characterize the interaction of KTP-NH2 with liposomes representing human cell membranes (Santos N. C., Prieto M. and Castanho M. A. 2003. Quantifying molecular partition into model systems of biomembranes: an emphasis on optical spectroscopic methods. Biochim Biophys Acta 1612: 123-135.). A clear interaction of KTP-NH2 with the lipid bilayers was observed. […] When titrated with a mammal-mimetic lipid bilayer vesicle (circles), the fluorescence intensity of the phenolic moiety increases due to insertion in the apolar environment created by the lipids. The POPC system mimetizes the external layer of human cell membranes, whereas POPG lipidic mixture mimetizes the internal layer of human cell membranes.
In order to confirm that these plasma-stable KTP-NH2 derivatives maintained their lipophilicity, their potential interaction with human cell membranes was assessed. Again, we performed biophysical studies using fluorescent methodologies (Santos N. C., Prieto M. and Castanho M. A. 2003. Quantifying molecular partition into model systems of biomembranes: an emphasis on optical spectroscopic methods. Biochim Biophys Acta 1612: 123-135.).

c-fos = experiment: Formalin-induced c-fos expression in spinal cord dorsal horn (immunohistochemistry); type: in vivo, rat; conditions: formalin-treated rats
[3] = Metabolic stability in human liver microsomal preparation; type: in vitro ADME; conditions: liver microsomes; 1-hour incubation with human liver microsomal preparation; read-out: compound remained
Source text: Many compounds can never become a drug because they are rapidly metabolized in the liver. It is important to confirm that metabolic stability is adequate to the desired distribution of compound throughout the body.

rats (Wister, male) [4] = experiment: Antioxidant capacity in plasma (ACW, ACL); type: in vivo, rat; conditions: i.p. once a day 3.23 mg/100 g for seven days
Procedure: The toxicological studies were carried out with rats (Wister, male) injected i.p. once a day with 3.23 mg/100 g body mass during seven days.
Metabolization of KTP-NH2 in the organism might lead to an increase in its metabolite products and to the subsequent production of reactive oxygen species (ROS). As increased ROS levels are potentially harmful, KTP-NH2 potential to induce changes in antioxidant capacities in the plasma of animals was explored. Total antioxidant capacity of lipid-soluble (ACL) and water-soluble (ACW) constituents were determined.

rats (Wister, male) [5] = experiment: Increasing-temperature Hot Plate test; type: in vivo, rat
Procedure: In vivo behavioural anti-nociception tests were carried out in rats (Wister, male). Unless otherwise stated, compounds were administered by intra-peritoneal (i.p.) injection. For most assays, the Tail Flick and the Hot Plate tests were used.
The hot-plate test (Eddy N. B and Leimbach D. 1953. Synthetic analgesics II. Dithienylbutenyl and dithienylbutylamines J. Pharmacol. Exp. Ther. 45: 339) evaluates a supraspinally integrated response in the form of thermal pain reflexes due to footpad contact with a heated surface. During the experiments, the animal is confined in a removable clear acrylic compartment where the latency time to the first hind paw or/and jumping responses are measured. […] The response is the licking of the hindpaw, and the corresponding plate temperature represents the recorded nociceptive end-point. The advantage of Increasing-Temperature Hot-Plate test over the standard constant-temperature hot-plate test is the higher sensitivity and the lack of influences of pre-exposure to the hot-plate before testing. Animal reaction temperature is a measurement of animal resistance to pain and is used to measure efficacy of analgesics.

[6] = Differential quenching, depth of location in the membrane; type: physicochemical; conditions: phenolic ring; differential quenching with 5-NS and 16-NS
Source text: Differential quenching experiments were used to estimate the depth of location of the phenolic ring of the peptides, based on a Brownian dynamics simulation (Fernandes M. X., Garcia de la Torre J., Castanho M. A. 2002. Joint determination by Brownian dynamics and fluorescence quenching of the in-depth location profile of biomolecules in membranes. Anal. Biochem. 307: 1-12.) This methodology allows to determine where the molecules are preferably inserted along the lipid bilayer. The peptides with the amide group show a greater depth of insertion, 4 Å—KTP-NH2 and 3 Å—Ibu-KTP-NH2, from the lipid/water interface. This is in agreement with KTP-NH2 having a higher affinity for lipids, as desired.

[7] = Plasma serum stability of analogues; type: in vitro ADME; conditions: Human Serum; test concentration 400 uM; 1-hour incubation; read-out: Mean Parent Remaining (%)
Procedure: These analogues were tested for plasma serum stability, in comparison with KTP-NH2.

monoarthritis rats = experiment: CFA-induced monoarthritis, Hargreaves and Tail Flick tests; type: in vivo, rat
Source text: The subcutaneous intraplantar injection of complete Freund's adjuvant (CFA) into the local area of an animal can cause severe inflammatory pain around the injected area. This CFA-induced inflammatory pain has been widely used as a kind of pain model in the field of pain research since it was reported. Inflammatory pain was induced by an injection of complete Freund's adjuvant into the right hindpaw of the rats (S. H. Butler, F. Godefroy, J. M. Besson and J. Weilfugazza. 1992. A limited arthritic model for chronic pain studies in the rat. Pain, 48: 73-81). The paw withdrawal latency was used to assess the inflammatory pain according to the method of Hargreaves et al. (Hargreaves K, Dubner R, Brown F, Flores C, and Joris J. 1988. A new and sensitive method for measuring thermal nociception in cutaneous hyperalgesia. Pain 32: 77-88, 1988). The CFA-injected area of the right paw was placed on a constant-intensity radiant heat source and the time of paw-withdrawal latency was measured by observing the animal's paw-withdrawal response after applying initial heat to the left or right paws. Additionally, the Tail Flick test was performed in order to assess the secondary hyperalgesia.

With `N=C(N)NCCC[C@H](NC(=O)[C@@H](N)Cc1ccc(O)cc1)C(N)=O` [KTP-NH2, L-Tyr-L-Arg-NH2] the “aggregation / solubility in aqueous medium” value [1] was “favourable solubility properties”, the “local concentration in the model membrane of mammals relative to surrounding bulk aqueous phase” value [2] was “approx. 2500 fold” and the “formalin-induced c-fos protein expression in dorsal horn” value (c-fos) was “significantly decreased”. The remaining at 1 h [3] was 93%, the “basal antioxidant capacity in plasma (ACL, ACW)” value (rats (Wister, male) [4]) was “does not induce significant modifications” and the “analgesic effect compared with ibuprofen” value (rats (Wister, male) [5]; Hot Plate, i.p.) was “more pronounced effect”. For the same compound, the “duration of anti-nociceptive response” value (rats (Wister, male) [5]; Hot Plate, i.p., rat) was 30 min, the “smallest dose tested with statistical significance” value (rats (Wister, male) [5]; Hot Plate, i.p., rat) was 1.67 mg for 100 g of body mass and the “analgesic efficacy after oral administration” value (rats (Wister, male) [5]; Hot Plate, oral, rat) was “slight delay of the onset of effect”. For the same compound, the “effect in hot plate test” value (rats (Wister, male) [5]; i.p., rat) was “clear anti-nociceptive response”, the “depth of insertion from the lipid/water interface” value [6] was 4 Å and the remaining at 1 h, 400 uM [7] was 14%. The “analgesic effect in chronic inflammatory pain” value (monoarthritis rats) was “efficacy”.
